Data set [1] concerns the target T1, N-type Ca2+ channels in IMR-32 cells (Homo sapiens, UniProt Q00975).
T1 construct: host or cells: IMR-32 cells, differentiated with dibutyryl cAMP and bromodeoxyuridine
Nature of the data set: Inhibition of N-type calcium flux in IMR-32 cells (Indo-1 fluorescence, nitrendipine present). Particulars: for inhibition at 1 µM / inhibition at 10 µM: IMR-32; for pIC50: IMR-32 cells, 5 μM nitrendipine, K+ depolarization. Type of data set: cell-based. In short, it runs like this: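 Differentiated IMR-32 cells (7–13 days) were loaded with 5 μM Indo-1 AM, preincubated with compound for 10 min at 30° C, and depolarized with KCl/CaCl2 stimulation solution, with 5 μM nitrendipine blocking L-channels. Peak-minus-basal 400/490 nm emission ratio was plotted against drug concentration, and IC50 came from four-parameter logistic fits.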
(In general: Calcium flux is commonly read through the fluorescence of an indicator in the cells.)

Data set [2] has as its system K+ channels in superior cervical ganglion (SCG) neurons. The experiment in a line: Whole-cell voltage clamp, K+ current in SCG neurons. Type of data set: cell-based, rat. The conditions noted are these: for pIC50: read-out: Inhibition of K+ Current IC50. How it is done:
(§1) Electrophysiological techniques were used to measure the effects of experimental compounds on voltage-gated Ca^2+, Na^+ and K^+ channels. […] Sodium and potassium channel currents were measured from acutely dissociated SCG neurons.
(§2) Dissociation of the neurons from the ganglia was accomplished using a 30 to 45 minute treatment in 0.25% trypsin, similar to methods outlined in Higgins, et al. [see Higgins D., et al. “Tissue culture of mammalian autonomic neurons.” In Banker G. and Goslin K. (Eds), Culturing Nerve Cells, Cambridge, Mass., MIT Press (1991)].
(§3) Ca^2+, Na^+ and K^+ channel currents in SCG neurons were measured using conventional single electrode whole-cell voltage-clamp techniques, outlined in Hamill, et al., (see Hamill O.P., et al. “Improved patch-clamp techniques for high resolution current recordings from cells and cell-free membrane patches”. Pflugers Arch. 1981;391:85-100) For Ca^2+ channel experiments, the external bathing solution contained tetraethylammonium chloride (100 mM), choline chloride (52 mM), NaCl (15 mM), HEPES (10 mM), glucose (5.6 mM), CaCl2 (2 mM), and MgCl2 (0.8 mM) pH 7.35 with KOH; with the internal pipette solution containing cesium methane sulfonate (140 mM), EGTA (10 mM), and HEPES (10 mM), supplemented with 5 mM Mg^2+ -ATP on the day of the experiment, pH 7.4 with CsOH. For Na^+ and K^+ channel experiments, the external bathing solution contained NaCl (150 mM), KCl (5 mM), MgCl2 (1.1 mM), CaCl2 (2.6 mM), Na-HEPES (10 mM), and glucose (10 mM), pH 7.4; with the internal pipette solution containing KCl (80 mM), K-gluconate (50 mM), HEPES (10 mM), and EGTA (10 mM), pH 7.4 with KOH. Experimental compounds were diluted into the external solution and applied to the soma of cells by local perfusion from large diameter (20-50 μm) glass micropipettes or from a U-tube applicator.
(§4) For Na^+ and K^+ channel currents, following the determination of the I/V relationship for each cell in control solution, currents were evoked from a holding potential between −65 and −55 mV by stepping every 10 sec to a test potential of either 0 mV for Na^+ or +50 mV for K^+ current for a duration of 35 msec. Peak inward current was measured for Na^+ and sustained current for K^+ channel currents. […] Test compounds were applied until steady-state block was achieved. Data were expressed as percent inhibition of control amplitudes for Na^+ and K^+ channel currents.

The target in data set [3] is T2, N-type Ca2+ channels in superior cervical ganglion (SCG) neurons (Rattus norvegicus, UniProt Q02294).
T2 construct: from tissue
T2 sequence (Q02294 whole entry): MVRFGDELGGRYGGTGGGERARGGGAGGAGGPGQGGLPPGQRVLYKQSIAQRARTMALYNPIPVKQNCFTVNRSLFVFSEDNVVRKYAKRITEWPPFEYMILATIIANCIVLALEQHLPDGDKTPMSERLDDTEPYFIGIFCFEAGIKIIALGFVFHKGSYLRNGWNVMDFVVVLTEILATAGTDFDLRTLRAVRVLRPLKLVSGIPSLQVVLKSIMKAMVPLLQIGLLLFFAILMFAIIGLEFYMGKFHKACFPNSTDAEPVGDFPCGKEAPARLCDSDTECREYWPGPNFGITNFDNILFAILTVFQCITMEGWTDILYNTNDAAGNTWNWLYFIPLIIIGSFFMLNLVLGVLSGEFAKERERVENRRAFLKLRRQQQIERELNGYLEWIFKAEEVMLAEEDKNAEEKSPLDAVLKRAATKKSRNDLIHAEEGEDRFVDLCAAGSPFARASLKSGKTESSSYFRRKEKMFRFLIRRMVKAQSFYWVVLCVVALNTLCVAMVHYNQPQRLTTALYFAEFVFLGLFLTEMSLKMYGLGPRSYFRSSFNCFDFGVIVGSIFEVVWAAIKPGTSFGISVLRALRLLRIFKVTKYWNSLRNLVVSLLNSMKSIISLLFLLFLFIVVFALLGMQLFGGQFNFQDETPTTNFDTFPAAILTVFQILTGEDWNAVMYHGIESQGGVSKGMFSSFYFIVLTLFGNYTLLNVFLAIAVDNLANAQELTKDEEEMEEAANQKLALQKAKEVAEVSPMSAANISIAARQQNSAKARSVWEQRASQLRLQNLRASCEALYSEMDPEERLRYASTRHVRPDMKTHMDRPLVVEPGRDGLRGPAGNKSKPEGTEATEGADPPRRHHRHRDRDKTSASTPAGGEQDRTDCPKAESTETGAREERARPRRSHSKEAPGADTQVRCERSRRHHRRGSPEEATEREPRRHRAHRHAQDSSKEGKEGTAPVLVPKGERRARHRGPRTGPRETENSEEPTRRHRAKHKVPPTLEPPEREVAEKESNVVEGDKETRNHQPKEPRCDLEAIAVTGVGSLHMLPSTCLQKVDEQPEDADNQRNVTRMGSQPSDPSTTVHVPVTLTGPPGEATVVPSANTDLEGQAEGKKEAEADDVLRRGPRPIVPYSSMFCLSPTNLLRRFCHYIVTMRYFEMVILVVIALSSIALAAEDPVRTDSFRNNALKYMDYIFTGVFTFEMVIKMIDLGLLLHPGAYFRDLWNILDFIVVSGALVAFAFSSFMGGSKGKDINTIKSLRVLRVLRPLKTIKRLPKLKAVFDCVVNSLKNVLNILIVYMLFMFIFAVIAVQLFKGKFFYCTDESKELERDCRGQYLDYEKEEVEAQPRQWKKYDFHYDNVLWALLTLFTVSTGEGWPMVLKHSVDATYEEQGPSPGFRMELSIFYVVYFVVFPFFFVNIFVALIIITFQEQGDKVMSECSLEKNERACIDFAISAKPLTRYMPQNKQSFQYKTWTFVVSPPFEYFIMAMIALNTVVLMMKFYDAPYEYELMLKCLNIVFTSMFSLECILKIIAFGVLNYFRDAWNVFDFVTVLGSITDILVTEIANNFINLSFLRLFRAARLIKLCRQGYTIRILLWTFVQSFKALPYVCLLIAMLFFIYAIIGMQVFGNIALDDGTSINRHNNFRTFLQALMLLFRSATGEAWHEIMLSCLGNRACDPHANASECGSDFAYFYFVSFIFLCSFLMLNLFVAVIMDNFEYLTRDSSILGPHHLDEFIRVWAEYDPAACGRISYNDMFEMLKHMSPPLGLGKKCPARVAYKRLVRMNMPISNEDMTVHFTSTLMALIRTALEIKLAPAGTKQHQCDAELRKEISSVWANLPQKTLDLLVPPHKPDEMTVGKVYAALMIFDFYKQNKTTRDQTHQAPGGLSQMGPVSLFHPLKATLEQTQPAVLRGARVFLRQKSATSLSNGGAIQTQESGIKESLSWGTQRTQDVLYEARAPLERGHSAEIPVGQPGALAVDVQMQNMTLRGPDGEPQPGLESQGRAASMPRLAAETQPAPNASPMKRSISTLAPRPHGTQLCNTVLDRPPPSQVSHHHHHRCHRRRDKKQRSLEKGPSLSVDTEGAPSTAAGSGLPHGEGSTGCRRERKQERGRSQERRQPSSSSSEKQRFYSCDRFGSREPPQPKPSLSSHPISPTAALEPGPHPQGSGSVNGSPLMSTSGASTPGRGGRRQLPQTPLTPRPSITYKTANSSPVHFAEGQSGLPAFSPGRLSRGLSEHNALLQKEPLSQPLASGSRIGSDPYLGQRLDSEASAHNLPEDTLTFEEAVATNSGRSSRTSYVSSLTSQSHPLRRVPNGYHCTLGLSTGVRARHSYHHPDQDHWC
T2 sequence (P54290 25-944 partner limits assumed): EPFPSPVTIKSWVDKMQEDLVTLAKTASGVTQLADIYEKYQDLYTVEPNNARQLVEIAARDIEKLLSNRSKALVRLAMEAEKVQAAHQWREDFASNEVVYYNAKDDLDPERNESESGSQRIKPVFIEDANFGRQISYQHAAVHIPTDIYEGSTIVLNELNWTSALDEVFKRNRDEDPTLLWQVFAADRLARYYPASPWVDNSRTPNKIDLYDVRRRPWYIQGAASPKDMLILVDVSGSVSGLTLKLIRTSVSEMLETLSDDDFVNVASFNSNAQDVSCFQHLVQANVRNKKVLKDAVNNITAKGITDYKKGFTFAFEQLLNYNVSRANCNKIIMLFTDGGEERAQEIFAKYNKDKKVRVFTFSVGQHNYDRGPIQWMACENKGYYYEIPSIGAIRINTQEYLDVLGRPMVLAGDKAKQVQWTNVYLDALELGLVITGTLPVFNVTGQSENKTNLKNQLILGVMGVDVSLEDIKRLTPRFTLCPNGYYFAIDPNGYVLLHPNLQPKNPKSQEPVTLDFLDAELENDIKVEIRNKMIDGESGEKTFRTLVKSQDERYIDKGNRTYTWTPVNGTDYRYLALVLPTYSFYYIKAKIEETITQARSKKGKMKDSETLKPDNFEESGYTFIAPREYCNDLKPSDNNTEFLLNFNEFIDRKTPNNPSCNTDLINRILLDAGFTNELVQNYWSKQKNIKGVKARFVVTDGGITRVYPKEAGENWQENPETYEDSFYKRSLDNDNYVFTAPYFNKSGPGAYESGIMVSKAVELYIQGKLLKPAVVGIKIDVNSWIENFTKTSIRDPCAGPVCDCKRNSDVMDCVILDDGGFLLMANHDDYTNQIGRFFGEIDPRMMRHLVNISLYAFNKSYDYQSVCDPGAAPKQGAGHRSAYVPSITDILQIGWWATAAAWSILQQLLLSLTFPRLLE
T2 sequence (P54290 945-1091 partner limits assumed): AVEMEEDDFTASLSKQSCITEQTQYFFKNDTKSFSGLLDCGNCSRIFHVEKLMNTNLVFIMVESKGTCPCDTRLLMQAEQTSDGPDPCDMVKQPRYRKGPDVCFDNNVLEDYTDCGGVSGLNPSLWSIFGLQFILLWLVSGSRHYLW
T2 sequence (P54287 whole entry partner): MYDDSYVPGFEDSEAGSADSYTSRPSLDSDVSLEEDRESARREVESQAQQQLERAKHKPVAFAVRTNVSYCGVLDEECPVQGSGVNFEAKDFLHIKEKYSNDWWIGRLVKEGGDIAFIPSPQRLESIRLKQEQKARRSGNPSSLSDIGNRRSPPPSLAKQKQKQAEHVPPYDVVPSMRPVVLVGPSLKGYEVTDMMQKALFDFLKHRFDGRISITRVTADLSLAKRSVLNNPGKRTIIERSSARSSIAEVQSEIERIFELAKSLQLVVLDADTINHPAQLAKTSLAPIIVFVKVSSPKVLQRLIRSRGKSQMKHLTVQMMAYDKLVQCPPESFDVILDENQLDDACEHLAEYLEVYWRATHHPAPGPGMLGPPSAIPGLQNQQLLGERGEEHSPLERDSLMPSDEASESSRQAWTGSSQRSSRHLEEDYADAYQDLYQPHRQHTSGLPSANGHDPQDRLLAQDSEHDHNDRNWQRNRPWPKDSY
The experiment in a line: Whole-cell voltage clamp, N-type Ca2+ current in SCG neurons. Type of data set: cell-based. Particulars: for pIC50: read-out: Inhibition of N-type Ca2+ Current IC50. How it is done:
as §1, §2, §3
After obtaining a whole-cell recording, Ca^2+ channels were elicited by stepping to test potentials between −40 and +20 mV for 120 msec from the holding potential of −90 mV to determine if the amplitude of the current and clamp control were adequate for evaluation of drug effects. Ca^2+ channel currents were evoked by stepping from a holding potentials between −65 mV and −−55 mV to a test potential of +20 mV for 150 msec every 40 seconds. The amplitude of the Ca^2+ channel currents were compared before and during drug application and drug effects expressed as percent inhibition of the amplitude of control currents.

In data set [4] the test system is Na+ channels in superior cervical ganglion (SCG) neurons. Nature of the data set: Whole-cell voltage clamp, Na+ current in SCG neurons. Type of data set: cell-based, rat. Particulars: for pIC50: read-out: Inhibition of Na+ Current IC50. How it is done: as §1, §2, §3, §4

Each structure is given as a SMILES string. pIC50: −log10 of the molar value.

As a reminder, the melting point is the temperature of the solid-liquid transition. The inhibition is how much of the control response was suppressed. By pIC50 is commonly meant the negative decadic logarithm of the IC50, by convention in mol/L.

In the case of `CC(C)C[C@H](NC(=O)N1CCN(c2ccccc2)CC1)C(=O)N[C@@H](Cc1ccc(OCc2ccccc2)cc1)C(=O)OC(C)(C)C` [Example 10, [S-(R*,R*)]-3-(4-Benzyloxy-phenyl)-2-{4-methyl-2-[(4-phenyl-piperazine-1-carbonyl)-amino]-pentanoylamino}-propionic acid tert-butyl ester], the melting point lay within 67 to 69 °C. Also, in data set [1], the inhibition at 1 µM worked out at 46%, the inhibition at 10 µM stood at 73% and the pIC50 is 5.68.
On to `CC(C)C[C@H](NC(=O)N1CCCCCC1)C(=O)N[C@@H](Cc1ccc(OCc2cccc(NC(=O)OC(C)(C)C)c2)cc1)C(=O)OC(C)(C)C` [Example 28, [S-(R*,R*)]-2-{2-[(Azepane-1-carbonyl)-amino]-4-methyl-pentanoylamino}-3-[4-(3-tert-butoxycarbonylamino-benzyloxy)-phenyl]-propionic acid tert-butyl ester], for which the “Inhibition of K+ Current, % Inhibition at 10 μM” value in data set [2] is on record as 11%. This compound came in with an inhibition at 10 µM in data set [3] (10 μM) of 40%. Besides, the “Inhibition of Na+ Current, % Inhibition at 10 μM” value in data set [4] is reported as 5%. Also, in data set [1], the inhibition at 1 µM came out at 42%, the inhibition at 10 µM is 65% and the pIC50 was 5.74.
Take `CC(C)C[C@H](NC(=O)N1CCCCCC1)C(=O)N[C@@H](Cc1ccc(OCC2CCCCC2)cc1)C(=O)OC(C)(C)C` [Example 30, [S-(R*,R*)]-2-{2-[(Azepane-1-carbonyl)-amino]-4-methyl-pentanoylamino}-3-(4-cyclohexylmethoxy-phenyl)-propionic acid tert-butyl ester]: the “Inhibition of K+ Current, % Inhibition at 10 μM” value in data set [2] was 8%. For the same compound, in data set [3] (10 μM), the inhibition at 10 µM was determined as 38%. The “Inhibition of Na+ Current, % Inhibition at 10 μM” value in data set [4] is reported as 19%. Moreover, in data set [1], the inhibition at 1 µM was determined as 56%, the inhibition at 10 µM was 83% and the pIC50 was 6.20.
Take `CC(C)C[C@H](NC(=O)N1CCCCCC1)C(=O)N[C@@H](Cc1ccc(OCc2cccnc2)cc1)C(=O)OC(C)(C)C` [Example 31, [S-(R*,R*)]-2-{2-[(Azepane-1-carbonyl)-amino]-4-methyl-pentanoylamino}-3-[4-(pyridin-3-ylmethoxy)-phenyl]-propionic acid tert-butyl ester]: the “Inhibition of K+ Current, % Inhibition at 10 μM” value in data set [2] is 41%. The pIC50 in data set [2] was 4.91; in data set [3] it was 5.48; in data set [4], 3.73; in data set [1], 5.73. Further, the inhibition at 10 µM in data set [3] (10 μM) amounted to 68%; in data set [1], 85%. Also, the “Inhibition of Na+ Current, % Inhibition at 10 μM” value in data set [4] came out at 21%. Besides, the inhibition at 1 µM in data set [1] came out at 28%.
Consider `CC(C)(C)C[C@H](NC(=O)N1CCCCCC1)C(=O)N[C@@H](Cc1ccc(OCc2ccccc2)cc1)C(=O)NCCN1CCCCC1` [Example 159, [S-(R*,R*)]-Azepane-1-carboxylic acid {1-[2-(4-benzyloxy-phenyl)-1-(2-piperidin-1-ylethylcarbamoyl)-ethylcarbamoyl]-3,3-dimethyl-butyl}-amide], for which the “Inhibition of K+ Current, % Inhibition at 10 μM” value in data set [2] stood at 46%. In data set [3] (10 μM), this compound displayed an inhibition at 10 µM of 28%. For the same compound, the “Inhibition of Na+ Current, % Inhibition at 10 μM” value in data set [4] was determined as 30%. Further, the pIC50 in data set [1] is 6.08.
For `O=C(NCCN1CCCCC1)[C@H](Cc1ccc(OCc2ccccc2)cc1)NC(=O)[C@H](CC1CCCCC1)NC(=O)N1CCCCCC1` [Example 162, [S-(R*,R*)]-Azepane-1-carboxylic acid {1-[2-(4-benzyloxy-phenyl)-1-(2-piperidin-1-ylethylcarbamoyl)-ethylcarbamoyl]-2-cyclohexyl-ethyl}-amide] the same measures were 40%, 47%, 32% and 6.02.
For the compound `CC(C)C[C@H](NC(=O)N1CCCCCC1)C(=O)N[C@@H](Cc1ccc(OCc2ccccc2)cc1)C(=O)NCCO` [Example 165, [S-(R*,R*)]-Azepane-1-carboxylic acid {1-[2-(4-benzyloxy-phenyl)-1-(2-hydroxy-ethylcarbamoyl)-ethylcarbamoyl]-3-methyl-butyl}-amide], in data set [2], the “Inhibition of K+ Current, % Inhibition at 10 μM” value was 86%. The inhibition at 10 µM in data set [3] (10 μM) turned out to be 84%. Further, the pIC50 in data set [3] was 5.63; in data set [4], 5.16; in data set [1], 5.44. Further, in data set [4], the “Inhibition of Na+ Current, % Inhibition at 10 μM” value stood at 46%.
`CC(C)C[C@H](NC(=O)N1CCCCCC1)C(=O)N[C@@H](Cc1ccc(OCc2ccccc2)cc1)C(=O)N1CCCCC1` [Example 167, [S-(R*,R*)]-Azepane-1-carboxylic acid {1-[1-(4-benzyloxy-benzyl)-2-oxo-2-piperidin-1-ylethylcarbamoyl]-3-methyl-butyl}-amide]: in data set [2], the “Inhibition of K+ Current, % Inhibition at 10 μM” value was determined as 8%. In addition, the inhibition at 10 µM in data set [3] (10 μM) came out at 4%. In addition, in data set [4], the “Inhibition of Na+ Current, % Inhibition at 10 μM” value was −2%. Besides, in data set [1], the inhibition at 1 µM was found to be 58% and the pIC50 was 6.28.
For `CC(C)C[C@H](NC(=O)N1CCOCC1)C(=O)N[C@@H](Cc1ccc(OCc2ccccc2)cc1)C(=O)NCCN1CCCCC1` [Example 177, [S-(R*,R*)]-Morpholine-4-carboxylic acid {1-[2-(4-benzyloxy-phenyl)-1-(2-piperidin-1-ylethylcarbamoyl)-ethylcarbamoyl]-3-methyl-butyl}-amide], the “Inhibition of K+ Current, % Inhibition at 10 μM” value in data set [2] was 68%. In addition, in data set [3] (10 μM), at 10 µM the inhibition was 87%. In addition, the negative-log IC50 (pIC50) in data set [3] is 5.69; in data set [1] it was 5.54. Besides, the “Inhibition of Na+ Current, % Inhibition at 10 μM” value in data set [4] is 31%.
Turning to `CC(C)C[C@H](NC(=O)N1CCCCCC1)C(=O)N[C@@H](Cc1ccc(OCc2ccccc2)cc1)C(=O)NCCCNC1CCCCC1` [Example 184, [S-(R*,R*)]-Azepane-1-carboxylic acid {1-[2-(4-benzyloxy-phenyl)-1-(3-cyclohexylamino-propylcarbamoyl)-ethylcarbamoyl]-3-methyl-butyl}-amide], the “Inhibition of K+ Current, % Inhibition at 10 μM” value in data set [2] is recorded as 89%. Also, the pIC50 in data set [2] is 6.31; in data set [3] it was 5.92; in data set [4] it was 5.31; in data set [1], 5.59. In addition, in data set [3] (10 μM), 10 µM produced 54% inhibition. In data set [4], the “Inhibition of Na+ Current, % Inhibition at 10 μM” value was determined as 82%.
As for `CC(C)CC(NC(=O)N1CCCCCC1)C(=O)NC(Cc1ccc(OCc2ccccc2)cc1)C(=O)NC(C)C(C)C` (centres unmarked) [Example 191, Azepane-1-carboxylic acid {1-[2-(4-benzyloxy-phenyl)-1-(1,2-dimethyl-propylcarbamoyl)-ethylcarbamoyl]-3-methyl-butyl}-amide], the “Inhibition of K+ Current, % Inhibition at 10 μM” value in data set [2] amounted to 64%. For the same compound, the pIC50 was 5.24 in data set [2], 5.36 in data set [3], 4.37 in data set [4] and 6.14 in data set [1]. This compound gave an inhibition at 10 µM in data set [3] (10 μM) of 61%. In addition, the “Inhibition of Na+ Current, % Inhibition at 10 μM” value in data set [4] is given as 38%.
For the compound `CC(C)CC(NC(=O)N1CCCCCC1)C(=O)NC(Cc1ccc(OCc2ccccc2)cc1)C(=O)NC(C)C(C)C` (centres unmarked) [Example 192, Azepane-1-carboxylic acid {1-[2-(4-benzyloxy-phenyl)-1-(1,2-dimethylpropylcarbamoyl)-ethylcarbamoyl]-3-methyl-butyl}-amide], the “Inhibition of K+ Current, % Inhibition at 10 μM” value in data set [2] was found to be 58%. Moreover, the “Inhibition of N-type Ca2+ Current, % Inhibition at 10 μM” value in data set [3] (10 μM) is 58%. The pIC50 in data set [3] was 5.55; in data set [1] it was 6.04. For the same compound, the “Inhibition of Na+ Current, % Inhibition at 10 μM” value in data set [4] came out at 26%.

For the origin of these results see patent US6423689B1, “Peptidyl calcium channel blockers” (Warner-Lambert Company, priority 1997, dated 2002).
